Test results from US20080261994A1, “CYCLOPROPANE COMPOUNDS AND PHARMACEUTICAL USE THEREOF” (Japan Tobacco Inc., priority 2003, published 2008).
pIC50: −log10 of the molar value. Read-outs that look alike come from different tables or passages of the source.

Experiments:
Type in all cases: biochemical
[1] = target: T1, aggrecanase-1 (Homo sapiens, UniProt O75173); assay: Aggrecanase-1 inhibitory action (Particle Assay, GAG release from aggrecan-containing polyacrylamide particles)
T1 sequence (O75173 213-837): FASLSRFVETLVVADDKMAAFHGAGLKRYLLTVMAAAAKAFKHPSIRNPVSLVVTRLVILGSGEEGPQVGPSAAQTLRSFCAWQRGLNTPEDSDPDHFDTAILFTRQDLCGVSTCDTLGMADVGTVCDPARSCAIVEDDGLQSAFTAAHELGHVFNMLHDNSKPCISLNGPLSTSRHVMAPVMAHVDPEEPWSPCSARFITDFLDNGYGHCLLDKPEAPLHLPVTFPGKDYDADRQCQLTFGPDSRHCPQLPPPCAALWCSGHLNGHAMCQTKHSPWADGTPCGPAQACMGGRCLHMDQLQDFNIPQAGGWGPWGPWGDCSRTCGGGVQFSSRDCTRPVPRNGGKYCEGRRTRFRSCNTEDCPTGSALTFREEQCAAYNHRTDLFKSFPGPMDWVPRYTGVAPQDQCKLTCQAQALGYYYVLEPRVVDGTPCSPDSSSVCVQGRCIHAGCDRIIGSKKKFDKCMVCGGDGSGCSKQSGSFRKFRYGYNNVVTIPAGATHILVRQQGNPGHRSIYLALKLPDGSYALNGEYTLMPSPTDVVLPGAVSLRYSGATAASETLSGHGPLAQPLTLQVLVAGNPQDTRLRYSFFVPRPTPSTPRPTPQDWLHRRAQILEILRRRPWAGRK
Method in brief: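 Enzyme and compound incubated with aggrecan-containing polyacrylamide particles in Tris-HCl buffer at 37° C for 15 h. Released GAG in supernatant measured with 1,9-dimethylmethylene blue at 595 nm against chondroitin sulfate standard; % inhibition from enzyme-free and inhibitor-free wells, reported as TC50 (μM).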

[2] = target: T2, MMP-1 (Homo sapiens, UniProt P03956); assay: MMP-1 inhibitory action (Type I collagen Activity Measurement kit, FITC-labeled collagen type I)
T2 sequence (P03956 100-469): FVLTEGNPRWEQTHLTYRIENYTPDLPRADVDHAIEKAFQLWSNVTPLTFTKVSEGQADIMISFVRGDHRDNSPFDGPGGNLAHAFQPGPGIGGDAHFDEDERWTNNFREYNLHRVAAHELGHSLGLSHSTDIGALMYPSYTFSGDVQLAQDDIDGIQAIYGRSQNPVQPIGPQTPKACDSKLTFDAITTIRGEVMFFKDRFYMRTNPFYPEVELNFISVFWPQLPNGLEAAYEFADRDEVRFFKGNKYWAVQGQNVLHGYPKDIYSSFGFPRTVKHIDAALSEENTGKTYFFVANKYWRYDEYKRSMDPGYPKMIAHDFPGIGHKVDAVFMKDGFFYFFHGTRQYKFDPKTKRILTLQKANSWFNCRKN

[3] = target: T3, Recombinant Human MMP-13 (Homo sapiens, UniProt P45452); assay: MMP-13 inhibitory activity (MMP-13 specific fluorescent substrate with quencher)
T3 construct: purchased R&D systems 511-MM
Method in brief: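 Recombinant human MMP-13 with test compound, reaction started with quenched fluorogenic peptide 7-MCA-Pro-CHA-Gly-NVal-His-Ala-DPA in Tris-HCl buffer, 1 h at 25 °C, stopped with acetic acid. Fluorescence at Ex 325/Em 405 nm; % inhibition versus enzyme-free and inhibitor-free wells, reported as IC50 (μM).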

[4] = Experimental Example 1, read-out: IC50 AG1
[5] = Experimental Example 2, read-out: IC50 MMP1
[6] = Experimental Example 3, read-out: IC50 MMP13
[7] = aggrecanase-1 inhibitory action, read-out: IC50 AG1 (Experimental Example 1)
[8] = MMP-1 inhibitory action, FITC-labeled collagen type I, 37° C. for 3 hr, read-out: IC50 MMP1 (Experimental Example 2)
[9] = Recombinant Human MMP-13, fluorescent substrate, 25° C. for 1 h, read-out: IC50 MMP13 (Experimental Example 3)

pIC50 [1, 4]	pIC50 [2, 5]	pIC50 [3, 6]	pIC50 [1, 7]	pIC50 [2, 8]	pIC50 [3, 9]	SMILES
≤ 6.00	≤ 5.00	≤ 6.00				CC(C)N1CCN(c2ccc(S(=O)(=O)N[C@@]3(C(=O)O)C[C@]3(C)c3ccccc3)s2)CC1 [Example 2-443]
			≤ 5.00	≤ 5.00	≤ 5.00	O=C(O)C1(NS(=O)(=O)c2ccc(Cl)s2)CC1c1ccccc1 (stereo not drawn) [Example 2-82]
> 6.00	≤ 6.00	> 6.00				O=C(CO)NCC1(c2ccccc2)CC1(NS(=O)(=O)c1ccc(-c2ccc(Cl)cc2)s1)C(=O)O (stereo not drawn) [Example 2-399]
			> 6.00	≤ 6.00	> 7.00	COc1cccc(C2CC2(NS(=O)(=O)c2ccc(-c3ccc(Cl)cc3)cc2)C(=O)O)c1 (stereo not drawn) [Example 1-12]
			> 7.00	≤ 6.00	> 7.00	Nc1cccc([C@H]2C[C@@]2(NS(=O)(=O)c2ccc(-c3ccc(Cl)cc3)s2)C(=O)O)c1 [Example 2-174]
			> 6.00	≤ 5.00	> 6.00	O=C(Cc1ccccc1C1CC1(NS(=O)(=O)c1ccc(-c2ccc(Cl)cc2)s1)C(=O)O)N1CCOCC1 (stereo not drawn) [Example 2-194]
≤ 6.00	≤ 5.00	≤ 6.00				CC1[C@H](c2ccccc2)[C@]1(NS(=O)(=O)c1ccc(-c2cc(C(F)(F)F)on2)o1)C(=O)O (stereo partly drawn) [Example 2-372]
			> 6.00	≤ 5.00	> 6.00	CC(C)(C)C1CC1(NS(=O)(=O)c1ccc(-c2ccc(Cl)cc2)s1)C(=O)O (stereo not drawn) [Example 2-62]
≤ 6.00	≤ 6.00	> 6.00				CC1[C@H](c2ccccc2)[C@]1(NS(=O)(=O)N1Cc2ccc(Cl)cc2C1)C(=O)O (stereo partly drawn) [Example 2-538]
			≤ 5.00	≤ 5.00	≤ 5.00	O=C(O)C1(NS(=O)(=O)c2cccs2)CC1c1ccccc1 (stereo not drawn) [Example 2-83]
			> 7.00	≤ 6.00	> 7.00	O=C(O)Cc1cccc(C2CC2(NS(=O)(=O)c2ccc(-c3ccc(Cl)cc3)s2)C(=O)O)c1 (stereo not drawn) [Example 2-181]
			> 7.00	≤ 6.00	> 7.00	O=C(O)[C@]1(NS(=O)(=O)c2ccc3c(c2)Cc2cc(Br)ccc2-3)C[C@@H]1c1ccccc1 [Example 1-91]
			> 6.00	≤ 5.00	> 6.00	O=C(O)C1(NS(=O)(=O)c2ccc(-c3ccc(Cl)cc3)s2)CC1(CO)c1ccccc1 (stereo not drawn) [Example 2-229]
> 7.00	> 6.00	> 6.00				C[C@]1(c2ccccc2)C[C@@]1(NS(=O)(=O)c1ccc(-n2cc(S(C)(=O)=O)cn2)s1)C(=O)O [Example 2-602]
≤ 6.00	≤ 5.00	≤ 6.00				C[C@]1(c2ccccc2)C[C@@]1(NS(=O)(=O)c1ccc(-c2cccc(C(F)(F)CO)c2)s1)C(=O)O [Example 2-606]
			≤ 5.00	≤ 5.00	≤ 6.00	CN1CC=C(c2ccc(S(=O)(=O)N[C@@]3(C(=O)O)C[C@@H]3c3ccccc3)s2)CC1 [Example 2-172]
			> 7.00	≤ 6.00	> 6.00	O=C(O)c1cccc(C2CC2(NS(=O)(=O)c2ccc(-c3ccc(Cl)cc3)s2)C(=O)O)c1 (stereo not drawn) [Example 1-113]
> 6.00	≤ 6.00	> 6.00				Cc1cc(C2CC2(NS(=O)(=O)c2ccc(-c3cc(C(F)(F)F)on3)s2)C(=O)O)no1 (stereo not drawn) [Example 2-313]
≤ 6.00	≤ 6.00	≤ 6.00				CC1[C@H](c2ccccc2)[C@]1(NS(=O)(=O)N1CCN(C(=O)OCc2ccccc2)CC1)C(=O)O (stereo partly drawn) [Example 2-532]
